Source: patent US8748497B2, “Optimized fluorocarbon emulsions for blood substitutes and other therapeutic uses” (Alliance Pharmaceutical Corp., priority 2006, dated 2014)

Assay: intravascular persistence of PFOB and PFDB after 60/30% w/v PFOB/PFDB emulsion
Assay type: in vivo
Settings: rats
Excerpt: FIG. 4 represents typical data for the removal of both PFOB and PFDB. […] In general, the rate constant for PFDB removal is 20-30% less than that of PFOB.
The emulsion composition with the data shown in FIG. 4 contains a 60/30% (w/v) ratio of PFOB/PFDB stabilized by 6% w/v EYP. In this case, the rate constant for PFDB removal is 20% higher than that of PFOB. It might be assumed that in the first few hours after administration that the removal from blood is controlled by k12 (see FIG. 1). The fluorochemical composition of circulating emulsion droplets should, therefore, remain intact. How is it then that the two disperse phase components could have different rate constants? To answer this question, the composition of the intravenously administered droplets can be examined through the use of sedimentation field-flow fractionation (SdFFF) coupled with gas chromatography, thereby confirming the nature of the droplets.

rate constant for removal, less than that of PFOB (in general): 20-30%
rate constant for removal, higher than that of PFOB (in this case (FIG. 4), 60/30% w/v PFOB/PFDB, 6% w/v EYP): 20%
SMILES: FC(F)(F)C(F)(F)C(F)(F)C(F)(F)C(F)(F)C(F)(F)C(F)(F)C(F)(F)C(F)(F)C(F)(F)Br [PFDB, perfluorodecyl bromide]
